Source: ChEMBL document CHEMBL5579883, “Discovery of Novel Neo-Clerodane Derivatives as Potent Dual-Functional Antiosteoporosis Agents through Targeting Peroxisome Proliferator-Activated Receptor-γ” (J Med Chem, 2024)

Assays:
BMDM [1] = assay: Cytotoxicity against mouse Bone marrow macrophage at 10 uM measured after 72 hrs by MTT assay; format: toxicity, cell-based
BMDM [2] = assay: Inhibition of osteoclastogenesis in C57BL/6J mouse Bone marrow macrophage cells assessed as inhibition of RANKL-stimulated osteoclast formation measured after 6 days by tartrate-resistant acid phosphatase (TRAP) staining assay; settings: 144 h
BMDM [3] = assay: cells; settings: Mus musculus, 144 h, read-out: INH
Description: Inhibition of osteoclastogenesis in C57BL/6J mouse Bone marrow macrophage cells assessed as inhibition of RANKL-stimulated osteoclast formation at 10 uM measured after 6 days by tartrate-resistant acid phosphatase (TRAP) staining assay relative to control

[4] = target: T1, Peroxisome proliferator-activated receptor gamma (Homo sapiens, UniProt P37231); assay: Antagonist activity at PPAR gamma LBD (203 to 476 residues) (unknown origin) expressed in HEK293T cells co-transfected with pCMV-GAL4-PPARgamma-LBD-SV40-Renilla-luciferase assessed as reduction of rosiglitazone induced PPAR-gamma activation incubated for 24 hrs by dural-luciferase reporter assay; format: cell-based
T1 sequence (P37231 whole entry): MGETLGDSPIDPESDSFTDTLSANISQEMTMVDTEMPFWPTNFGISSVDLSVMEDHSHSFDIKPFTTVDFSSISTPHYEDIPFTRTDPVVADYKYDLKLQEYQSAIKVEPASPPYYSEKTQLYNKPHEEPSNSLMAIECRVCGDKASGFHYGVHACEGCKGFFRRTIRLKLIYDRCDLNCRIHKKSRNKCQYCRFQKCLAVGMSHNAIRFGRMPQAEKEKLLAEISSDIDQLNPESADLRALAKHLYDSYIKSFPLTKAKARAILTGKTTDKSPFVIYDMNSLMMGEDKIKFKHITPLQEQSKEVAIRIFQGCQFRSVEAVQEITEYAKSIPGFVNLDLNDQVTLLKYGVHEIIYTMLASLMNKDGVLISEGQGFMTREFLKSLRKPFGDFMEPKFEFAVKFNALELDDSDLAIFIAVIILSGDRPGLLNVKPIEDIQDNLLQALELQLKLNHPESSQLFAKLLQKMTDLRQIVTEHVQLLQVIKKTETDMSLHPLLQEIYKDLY

Compound | Activity (BMDM [1]) | IC50 (BMDM [2]) | inhibition at 10 µM (BMDM [3]) | IC50 [4]
C[C@@H]1C[C@H](O)[C@@]23COC[C@@H]2CCC[C@@H]3[C@@]1(C)CCC1=CC(=O)OC1 | Non-Toxic |  |  | 
C/C=C(\C)C(=O)OC[C@@]12[C@H](CCC[C@]13CO3)[C@@](C)(CCC1=CC(=O)OC1)[C@H](C)C[C@@H]2O | Non-Toxic |  |  | 
CC(=O)OC[C@@]12[C@@H](OC(C)=O)C[C@@H](C)[C@](C)(C[C@H](O)C3=CC(=O)OC3)[C@H]1CCC[C@]21CO1 [AJUGALIDE C] | Non-Toxic |  |  | 
NCCCC(O)(P(=O)(O)O)P(=O)(O)O [ALENDRONIC ACID] |  | 4.22 µM | > 50% | 
C/C=C(\C)C(=O)O[C@@H]1CC[C@](O)(CCl)[C@]2(COC(C)=O)[C@@H](OC(C)=O)C[C@@H](C)[C@](C)(C[C@H](O)C3=CC(=O)OC3)[C@@H]12 [AJUGAMARIN A1 CHLOROHYDRIN] | Non-Toxic |  |  | 
C/C=C(\C)C(=O)O[C@@H]1CC[C@]2(CO2)[C@]2(COC(C)=O)[C@@H](OC(C)=O)C[C@@H](C)[C@](C)(C[C@H](OC(C)=O)C3=CC(=O)OC3)[C@@H]12 [AJUGAMARIN A2] | Non-Toxic |  |  | 
C/C=C(\C)C(=O)OC[C@@]12[C@@H](OC(C)=O)C[C@@H](C)[C@](C)(CCC3=CC(=O)OC3)[C@H]1CCC[C@]2(O)CCl [AJUGACUMBIN A CHLOROHYDRIN] | Non-Toxic | 1.11 µM | > 50% | 10.2 µM
C[C@@H]1C[C@H](O)[C@@]2(COC(=O)/C=C/c3ccc(F)cc3)C(=O)CCC[C@@H]2[C@@]1(C)CCC1=CC(=O)OC1 | Non-Toxic |  |  | 
CC(=O)O[C@H]1C[C@@H](C)[C@](C)(CCC2=CC(=O)OC2)[C@H]2CCCC(=O)[C@]12CO | Non-Toxic | > 10 µM |  | > 20 µM
C/C=C(\C)C(=O)OC[C@@]12[C@@H](OC(C)=O)C[C@@H](C)[C@](C)(C[C@H](O)C3=CC(=O)OC3)[C@H]1CCC[C@]21CO1 | Non-Toxic |  |  | 
COC(=O)[C@@H]1CCC[C@@H]2[C@@](C)(C[C@H](OC(=O)C(C)C)C3=CC(=O)OC3)[C@H](C)C[C@H](O)[C@]21C | Non-Toxic | 1.79 µM | > 50% | 12.5 µM
COC(=O)[C@@H]1CCC[C@@H]2[C@@](C)(C[C@H](O)C3=CC(=O)OC3)[C@H](C)C[C@H](O)[C@]21C | Non-Toxic |  |  | 
C/C=C(\C)C(=O)O[C@@H]1CC[C@]2(CO2)[C@]2(COC(C)=O)[C@@H](OC(C)=O)C[C@@H](C)[C@](C)(C[C@H](OC(=O)C(C)CC)C3=CC(=O)OC3)[C@@H]12 (stereo partly specified) | Non-Toxic |  |  | 
CCC(C)C(=O)O[C@@H]1CC[C@]2(CO2)[C@]2(COC(C)=O)[C@@H](OC(C)=O)C[C@@H](C)[C@](C)(C[C@H](OC(C)=O)C3=CC(=O)OC3)[C@@H]12 (stereo partly specified) | Non-Toxic |  |  | 
C/C=C(\C)C(=O)O[C@@H](C[C@@]1(C)[C@H](C)C[C@H](OC(C)=O)[C@]2(COC(C)=O)[C@@H]1[C@H](OC(=O)/C(C)=C/C)CC[C@]21CO1)C1=CC(=O)OC1 [AJUGATAKASIN A] | Non-Toxic |  |  | 
CCC(C)C(=O)O[C@@H]1CC[C@]2(CO2)[C@]2(COC(C)=O)[C@@H](OC(C)=O)C[C@@H](C)[C@](C)(C[C@H](O)C3=CC(=O)OC3)[C@@H]12 (stereo partly specified) [DIHYDROAJUGAMARIN] | Non-Toxic |  |  | 
COC(=O)[C@@H]1CCC[C@@H]2[C@@](C)(C[C@@H]3OC(=O)C=C3CO)[C@H](C)C[C@H](O)[C@]21C | Non-Toxic |  |  | 
C/C=C(\C)C(=O)OC[C@@]12[C@H](CCC[C@]1(O)CCl)[C@@](C)(CCC1=CC(=O)OC1)[C@H](C)C[C@@H]2O | Non-Toxic | 1.77 µM | > 50% | 10.4 µM
C/C=C(\C)C(=O)OC[C@@]12[C@H](CCC[C@]13CO3)[C@@](C)(C[C@H](O)C1=CC(=O)OC1)[C@H](C)C[C@@H]2O | Non-Toxic | 3.23 µM | > 50% | 11.5 µM
C[C@@H]1C[C@H](O)[C@@]2(COC(=O)c3ccc(N(C)C)cc3)C(=O)CCC[C@@H]2[C@@]1(C)CCC1=CC(=O)OC1 | Non-Toxic | 0.31 µM |  | 
C/C=C(\C)C(=O)O[C@@H]1CC[C@]2(CO2)[C@]2(COC(C)=O)[C@@H](OC(C)=O)C[C@@H](C)[C@](C)(CC(=O)C3=CC(=O)OC3)[C@@H]12 | Non-Toxic | > 10 µM |  | > 20 µM
C[C@@H]1C[C@H](O)[C@@]2(CO)C(=O)CCC[C@@H]2[C@@]1(C)CCC1=CC(=O)OC1 | Non-Toxic | > 10 µM |  | > 20 µM

Compound | Activity (BMDM [1]) | IC50 (BMDM [2]) | inhibition at 10 µM (BMDM [3]) | IC50 [4]
O=C(Nc1ccncc1)c1cc([N+](=O)[O-])ccc1Cl |  | 0.067 µM |  | 
CC(=O)OC[C@@]12[C@@H](OC(C)=O)C[C@@H](C)[C@](C)(C[C@H](OC(C)=O)C3=CC(=O)OC3)[C@H]1[C@H](OC(C)=O)CC[C@]21CO1 [AJUGAPANTIN A] | Non-Toxic |  |  | 
CC(=O)OC[C@@]12[C@@H](OC(C)=O)C[C@@H](C)[C@](C)(CCC3=CC(=O)OC3)[C@H]1CCC[C@]21CO1 [AJUGARIN I] | Non-Toxic | 3.71 µM | > 50% | 12 µM
C/C=C(\C)C(=O)O[C@@H](C[C@@]1(C)[C@H](C)C[C@H](OC(C)=O)[C@]2(COC(C)=O)[C@@H]1[C@H](OC(C)=O)CC[C@]21CO1)C1=CC(=O)OC1 [AJUGANIPPONIN A] | Non-Toxic |  |  | 11.6 µM
C[C@@H]1C[C@H](O)[C@@]2(COC(=O)/C=C/c3ccc(C(F)(F)F)cc3)C(=O)CCC[C@@H]2[C@@]1(C)CCC1=CC(=O)OC1 | Non-Toxic |  |  | 
C/C=C(\C)C(=O)O[C@@H]1CC[C@]2(CO2)[C@]2(COC(C)=O)[C@@H](OC(C)=O)C[C@@H](C)[C@](C)(C[C@H](O)C3=CC(=O)OC3)[C@@H]12 [AJUGAMARIN A1] | Non-Toxic |  |  | 
C/C=C(\C)C(=O)OC[C@@]12[C@@H](OC(C)=O)C[C@@H](C)[C@](C)(CCC3=CC(=O)OC3)[C@H]1CCC[C@]2(O)COC(C)=O | Non-Toxic | 6.12 µM |  | > 20 µM
CC(=O)OC[C@@]12[C@@H](OC(C)=O)C[C@@H](C)[C@](C)(C[C@H](OC(C)=O)C3=CC(=O)OC3)[C@H]1[C@H](O)CC[C@]21CO1 | Non-Toxic | 5.1 µM | > 50% | 13 µM
C/C=C(\C)C(=O)O[C@@H](C[C@@]1(C)[C@H](C)C[C@H](O)[C@]2(C)[C@@H]1CCC[C@H]2C(=O)OC)C1=CC(=O)OC1 | Non-Toxic | 1.42 µM | > 50% | 
CCC(C)C(=O)O[C@@H](C[C@@]1(C)[C@H](C)C[C@H](O)[C@]2(C)[C@@H]1CCC[C@H]2C(=O)OC)C1=CC(=O)OC1 (stereo partly specified) | Non-Toxic | 1.23 µM | > 50% | 13 µM
C/C=C(\C)C(=O)OC[C@]12C(=O)CCC[C@@H]1[C@@](C)(CCC1=CC(=O)OC1)[C@H](C)CC2=O | Non-Toxic | 2.71 µM |  | 13.3 µM
C/C=C(\C)C(=O)OC[C@@]12[C@@H](OC(C)=O)C[C@@H](C)[C@](C)(CCC3=CC(=O)OC3)[C@H]1CCC[C@H]2C(=O)O | Non-Toxic |  |  | 
C[C@@H]1C[C@H](O)[C@@]2(COC(=O)c3ccc(C(F)(F)F)cc3)C(=O)CCC[C@@H]2[C@@]1(C)CCC1=CC(=O)OC1 | Non-Toxic |  |  | 
C/C=C(\C)C(=O)O[C@@H]1CC[C@](O)(CCl)[C@]2(COC(C)=O)[C@@H](OC(C)=O)C[C@@H](C)[C@](C)(C/C=C(/C=O)CC(=O)OC)[C@@H]12 | Non-Toxic | > 10 µM |  | > 20 µM
C/C=C(\C)C(=O)OC[C@]12C(=O)CCC[C@@H]1[C@@](C)(CCC1=CC(=O)OC1)[C@H](C)C[C@@H]2OC(C)=O | Non-Toxic |  |  | 
C[C@@H]1C[C@H](O)[C@@]2(COC(=O)c3ccc(F)cc3)C(=O)CCC[C@@H]2[C@@]1(C)CCC1=CC(=O)OC1 | Non-Toxic |  |  | 
C/C=C(\C)C(=O)OC[C@]12[C@H]3CCC[C@@]1(O)CO[C@@]2(O)C[C@H](C)[C@@]3(C)CCC1=CC(=O)OC1 | Non-Toxic | 1.04 µM |  | 8.18 µM
C/C=C(\C)C(=O)OC[C@@]12C(=O)C[C@@H](C)[C@](C)(CCC3=CC(=O)OC3)[C@H]1CCC[C@]2(O)CCl | Toxic |  |  | 
C/C=C(\C)C(=O)O[C@@H]1CC[C@]2(CO2)[C@@]2(COC(C)=O)[C@H]1[C@@](C)(C[C@H](OC(C)=O)C1=CC(=O)OC1)[C@H](C)C[C@@H]2O | Non-Toxic |  |  | 
COC(=O)[C@@H]1CC[C@@H](O)[C@@H]2[C@@](C)(C[C@H](O)C3=CC(=O)OC3)[C@H](C)C[C@H](O)[C@]21C | Non-Toxic |  |  | 
C/C=C(\C)C(=O)OC[C@@]12C(=O)C[C@@H](C)[C@](C)(CCC3=CC(=O)OC3)[C@H]1CCC[C@]21CO1 | Non-Toxic | 0.83 µM |  | 2.05 µM
C/C=C(\C)C(=O)O[C@@H](C[C@@]1(C)[C@H](C)C[C@H](OC(C)=O)[C@]2(COC(C)=O)[C@@H]1CCC[C@]2(O)CCl)C1=CC(=O)OC1 | Non-Toxic |  |  | 
